# Measured values: PubChem BioAssay AID467 (The Scripps Research Institute Molecular Screening Center, 2006)
# pEC50: −log10 of the molar value. Calls of active or inactive are those of the source. No rule for the calls is given here.
# Tested on: parental cell line counter screen, S1P1 agonist assay readout
# Assay: signal in parental cells, counter-screen for S1P1 agonist project (AID 467);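 also: agonist potency measured against forskolin stimulation plus an EC20 level of SEW2871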
SMILES,EC50,pEC50
COc1ccccc1-c1cc(C(=O)Nc2cc(C)nn2-c2ccccc2)no1,> 95.1 µM (inactive),
COc1ccc(-c2noc(-c3ccccc3F)n2)cc1,> 95.1 µM (inactive),
CCn1c(-c2cccc(Cl)c2)n[nH]c1=S,> 95.1 µM (inactive),
Cc1[nH]nc2c1C1(C(=O)N(Cc3ccc(Cl)cc3)c3ccccc31)C(C#N)=C(N)O2 (stereo not given),> 30 µM (inactive),
CC1=CC(C)(C)Nc2ccc(OC(=O)c3cccnc3)cc21,,5.35
Cc1nc(NC(C)c2ccccc2)c2oc3ccccc3c2n1 (stereo not given),52.9 µM (inactive),
Cc1cc(C(=O)CSc2nnc(-c3ccco3)o2)c(C)n1-c1ccc2c(c1)OCCO2,> 10 µM (inactive),
CCC(=O)Nc1ccc2c(c1)C(=O)N(C1CCCCC1)C2=O,> 95.1 µM (inactive),
Cc1nn(Cc2ccc(Cl)cc2)c(C)c1NC(=O)c1cc(-c2ccco2)on1,85.2 µM (inactive),
Nc1ccc(N2CCCCCC2)cc1,,5.00
COc1ccccc1N/C(N)=N/c1nc(CSc2ccc(C)cc2)cc(=O)[nH]1,> 95.1 µM (inactive),
c1ccc(CNc2ncnc3ccccc23)cc1,30.1 µM (inactive),
COc1cccc(-c2cc(C(=O)Nc3ccccc3SC)no2)c1,> 95.1 µM (inactive),
O=C(CSc1nnc(-c2cc3ccccc3cc2O)n1Cc1ccco1)c1ccc(F)cc1,> 10 µM (inactive),
Cc1csc(SCC(=O)c2cc(C)n(Cc3cccs3)c2C)n1,38.8 µM (inactive),
COc1ccc(-n2nc3ccc(NS(C)(=O)=O)cc3n2)cc1Cl,> 95.1 µM (inactive),
CCN(C(=O)c1ccc(C(C)(C)C)cc1)c1nnc(Cn2nnc3ccccc32)s1,,5.06
O=C(Nc1ncc(Br)s1)C(Cc1ccccc1)n1cccc1 (stereo not given),> 10 µM (inactive),
Cn1c(C(=O)N2CCCc3ccccc32)cc2sccc21,> 95.1 µM (inactive),
CCOC(=O)c1sc2nc(NC(=O)C3CCCCC3)sc2c1C,> 95.1 µM (inactive),
Cc1ccc(OCCn2cc(/C(N)=N/O)c3ccccc32)cc1C,17 µM (inactive),
Cc1cccc(-n2ncc3c(N(C)C4CCCCC4)ncnc32)c1,> 95.1 µM (inactive),
C/C(N)=C(/C#N)C(=O)CSc1nnc(SCc2ccc(Cl)cc2)s1,> 95.1 µM (inactive),
Cn1c(=O)oc2cc(S(=O)(=O)N3CCCC(C(=O)N4CC=C(c5ccccc5)CC4)C3)ccc21 (stereo not given),44.5 µM (inactive),
CCOc1nc(C)ccc1-c1noc(-c2ccncc2)n1,> 95.1 µM (inactive),
